The assay deals with Aureobasidium pullulans (ATCC #9348). Briefly: EUCAST 96-well plate fungal growth inhibition (MIC). Particulars: for MIC: Aureobasidium pullulans ATCC 9348, 3 days at 35° C. Details: key to growth of Aureobasidium pullulans in 96-well plates: (+) in each block indicates growth; (−) indicates no growth, i.e., the inhibitor was effective. It is filed as cell-based. How it is done: (A) 0.17 g of 60% DPAB aqueous solution (ProTek® PBT or Polymeric Betaine EP or Polymeric Betaine Technical Grade Active Ingredient Wood Preservative, Troy Chemical Corporation, Newark, N.J.) was diluted in 9.83 g ethanol by stirring to form a concentrate containing 1% DPAB.
(B) 0.25 g of 40% IPBC solvent solution (Polyphase® AF-1, Troy Chemical Corporation, Newark, N.J.) was diluted in 9.75 g ethanol by stirring to form a concentrate containing 1% IPBC.
(C) 21.04 g of 60% DPAB aqueous solution (ProTek® PBT or Polymeric Betaine EP or Polymeric Betaine Technical Grade Active Ingredient Wood Preservative, Troy Chemical Corporation, Newark, N.J.), 6.25 g of 40% IPBC solvent solution (Polyphase AF-1, Troy Chemical Corporation, Newark, N.J.) and 22.74 g of ethanol were mixed and stirred. The resulting concentrate contained 25% polymeric betaine and 5% IPBC. The weight ratio of polymeric betaine to IPBC was 5:1. 0.33 g of this IPBC/polymeric betaine concentrate was diluted in 9.67 g of ethanol to form a use-dilution containing about 0.83% DPAB and 0.17% IPBC.
Solutions prepared as described above were tested in 96-well plates for their ability to inhibit fungal growth. The solutions were tested according to the EUCAST methodology as described in Rodriguez-Tudela et al. 2006 “Antifungal susceptibility testing in Aspergillus spp. according to EUCAST methodology,” the contents of which are incorporated by reference herein. The solutions were checked for inhibition against fungal organisms Aspergillus niger (ATCC #6275), Aureobasidium pullulans (ATCC #9348), Penicillium funiculosum (ATCC #11797) and Trichoderma pseudokoningii (ATCC #26801). This method is described below:
(1) Prepared preservative test wells by adding 2 microliters of each 1% preservative solution formulation to 198 microliters of 2xRPMI-MOPS-2% Glucose in each column “1” in duplicate.
(2) Added 100 microliters of 2xRPMI-MOPS-2% Glucose to the remaining columns.
(3) Performed 2-fold dilutions down the columns to column “12”.
(4) Prepared suspension of microorganisms from a 3-5 day old PDA slants by flooding slant with 1 mL deionized water and 0.1% Tween-20.
(5) Suspension strength was determined via hemocytometer then adjusted to 1×10^6 spores/mL with sterile deionized water.
(6) Added 100 microliters of the microorganism suspension to all wells except for sterility (−) controls containing test media. The water used to prepare the fungal suspensions was added to sterility (−) control wells.
(7) The inoculated 96-well plates were incubated for 3 days at 35° C.
(8) After incubation, fungal growth was evaluated by visual growth in test wells. Minimum inhibitory concentration (MIC) is recorded in ppm and defined as the lowest concentration of fungicide that produces no visual changes in turbidity in the test wells. (+) in each block indicates growth and (−) indicates no growth, i.e., the inhibitor was effective.
(9) The experiment is only considered valid if growth is observed in the positive (+) control wells and no growth is observed in the negative control wells.
In order to show more directly the possible synergy in the invention, the results are presented by applying the Synergy Index (S.I.). Minimal inhibitory concentration of the composition of this invention (mixture of DPAB and IPBC) are analyzed using the following equation:
MCA=Concentration of compound A in parts per million, acting alone, which prevents fungal growth at the reference point
MCA′=Concentration of compound A in parts per million, in the mixture, which prevents fungal growth at the reference point
MCB=Concentration of compound B in parts per million, acting alone, which prevents fungal growth at the reference point
MCB′=Concentration of compound B in parts per million, in the mixture, which prevents fungal growth at the reference point
When SI is greater than 2, antagonism is indicated. […] When SI is between 0.5 and 2, the action of biocides is additive.

With `CCCCNC(=O)OCC#CI` [IPBC, 3-iodo-2-propynyl butyl carbamate], the MIC came to 25.00 ppm. Also, the “growth of Aureobasidium pullulans in 96-well plates” value (from here on “growth of Aureobasidium pullulans”) (well 1, 50.00 ppm active) is on record as “−”. Further, the “growth of Aureobasidium pullulans” value (well 2, 25.00 ppm active) is “−”. The “growth of Aureobasidium pullulans” value (well 3, 12.50 ppm active) was “+”. Besides, the “growth of Aureobasidium pullulans” value (well 4, 6.25 ppm active) was “+”. Moreover, the “growth of Aureobasidium pullulans” value (well 5, 3.13 ppm active) is on record as “+”. Moreover, the “growth of Aureobasidium pullulans” value (well 6, 1.56 ppm active) was “+”. For the setting “well 7, 0.78 ppm active”, the “growth of Aureobasidium pullulans” value is “+”. Moreover, the “growth of Aureobasidium pullulans” value (well 8, 0.39 ppm active) is “+”. In addition, the “growth of Aureobasidium pullulans” value (well 9, 0.20 ppm active) is given as “+”. In addition, the “growth of Aureobasidium pullulans” value (well 10, 0.10 ppm active) is recorded as “+”. For the same compound, the “growth of Aureobasidium pullulans” value (well 11, 0.05 ppm active) is “+”. Further, the “growth of Aureobasidium pullulans” value (well 12, 0.02 ppm active) was “+”.

Consider “didecyl bis(hydroxyethyl) ammonium borate [DPAB]”, for which the MIC stood at 12.5 ppm. In addition, the “growth of Aureobasidium pullulans” value (well 1, 50.00 ppm active) is on record as “−”. Moreover, the “growth of Aureobasidium pullulans” value (well 2, 25.00 ppm active) is “−”. For the same compound, the “growth of Aureobasidium pullulans” value (well 3, 12.50 ppm active) was “−”. In addition, where the note is “well 4, 6.25 ppm active”, the “growth of Aureobasidium pullulans” value is “+”. The “growth of Aureobasidium pullulans” value (well 5, 3.13 ppm active) is recorded as “+”. Besides, the “growth of Aureobasidium pullulans” value (well 6, 1.56 ppm active) is reported as “+”. Besides, the “growth of Aureobasidium pullulans” value (well 7, 0.78 ppm active) was “+”. Also, the “growth of Aureobasidium pullulans” value (well 8, 0.39 ppm active) is “+”. For the same compound, where the note is “well 9, 0.20 ppm active”, the “growth of Aureobasidium pullulans” value is recorded as “+”. Moreover, the “growth of Aureobasidium pullulans” value (well 10, 0.10 ppm active) is listed as “+”. The “growth of Aureobasidium pullulans” value (well 11, 0.05 ppm active) is listed as “+”. In addition, the “growth of Aureobasidium pullulans” value (well 12, 0.02 ppm active) was “+”.

The record behind these values is patent US20220161456A1, “S[…] PRESERVATIVE COMPOSITION COMPRISING POLYMERIC BETAINE AND CARBAMATE” (Troy Corporation, priority 2019, published 2022).
